One block for each molecule: values may come before it.
Assays:
[1] = Clearance in rat at 5 mg/kg, iv or 15 mg/kg, po; format: ADME, organism-based; conditions: in vivo
[2] = Oral bioavailability in rat at 15 mg/kg; format: ADME, organism-based; conditions: in vivo
[3] = Drug concentration in Sprague-Dawley rat liver at 15 mg/kg, po after 6 hrs; format: ADME, organism-based; conditions: read-out: Drug uptake
[4] = Drug concentration in Sprague-Dawley rat liver at 5 mg/kg, iv after 6 hrs; format: ADME, organism-based; conditions: read-out: Drug uptake
[5] = AUC in Sprague-Dawley rat at 15 mg/kg, po after 6 hrs; format: ADME, organism-based; set-up: dose 15 mg/kg, time < 6 hr, route oral; conditions: in vivo
[6] = Half life in human liver microsomes in presence of NADPH; format: ADME, microsome
[7] = AUC in Sprague-Dawley rat at 5 mg/kg, iv after 6 hrs; format: ADME, organism-based; set-up: time < 6 hr, dose 5 mg/kg, route intravenous; conditions: in vivo
[8] = Clearance in Sprague-Dawley rat at 5 mg/kg, iv after 6 hrs; format: ADME, organism-based; conditions: in vivo
[9] = Half life in Sprague-Dawley rat at 15 mg/kg, po after 24 hrs; format: ADME, organism-based; conditions: in vivo
[10] = Clearance in Sprague-Dawley rat at 5 mg/kg, iv after 24 hrs; format: ADME, organism-based; conditions: in vivo
[11] = Half life in Sprague-Dawley rat at 5 mg/kg, iv after 24 hrs; format: ADME, organism-based; conditions: in vivo
[12] = Oral bioavailability in Sprague-Dawley rat at 15 mg/kg after 24 hrs; format: ADME, organism-based; conditions: in vivo
[13] = AUC in Sprague-Dawley rat at 15 mg/kg, po after 24 hrs; format: ADME, organism-based; set-up: time < 24 hr, dose 15 mg/kg, route oral; conditions: in vivo
[14] = AUC in Sprague-Dawley rat at 5 mg/kg, iv after 24 hrs; format: ADME, organism-based; set-up: dose 5 mg/kg, time < 24 hr, route intravenous; conditions: in vivo
[15] = Cardiotoxicity in Langendorff perfused rabbit heart assessed as change in QT interval at 10 uM measured over 30 mins by electrocardiography (reference value: 0%); format: toxicity, tissue-based, Oryctolagus cuniculus; conditions: 0.5 h
[16] = Cardiotoxicity in Langendorff perfused rabbit heart assessed as change in sinus node recovery time at 10 uM measured over 10 mins by electrocardiography (reference value: 0%); format: toxicity, tissue-based, Oryctolagus cuniculus
[17] = Cardiotoxicity in Langendorff perfused rabbit heart assessed as change in heart rate at 10 uM measured over 30 mins by electrocardiography (reference value: 0%); format: toxicity, tissue-based, Oryctolagus cuniculus; conditions: 0.5 h
[18] = Cardiotoxicity in Langendorff perfused rabbit heart assessed as change in QRS interval at 10 uM measured over 30 mins by electrocardiography (reference value: 0%); format: toxicity, tissue-based, Oryctolagus cuniculus; conditions: 0.5 h
[19] = Cardiotoxicity in Langendorff perfused rabbit heart assessed as change in PR interval at 10 uM measured over 10 mins by electrocardiography (reference value: 0%); format: toxicity, tissue-based, Oryctolagus cuniculus
[20] = Cardiotoxicity in Langendorff perfused rabbit heart assessed as change in sinus node recovery time at 10 uM measured over 20 mins by electrocardiography (reference value: 0%); format: toxicity, tissue-based, Oryctolagus cuniculus
[21] = Cardiotoxicity in Langendorff perfused rabbit heart assessed as change in QT interval at 10 uM measured over 20 mins by electrocardiography (reference value: 0%); format: toxicity, tissue-based, Oryctolagus cuniculus
[22] = Cardiotoxicity in Langendorff perfused rabbit heart assessed as change in QRS interval at 10 uM measured over 10 mins by electrocardiography (reference value: 0%); format: toxicity, tissue-based, Oryctolagus cuniculus
[23] = Cardiotoxicity in Langendorff perfused rabbit heart assessed as change in coronary flow at 10 uM measured over 10 mins by electrocardiography (reference value: 0%); format: toxicity, tissue-based, Oryctolagus cuniculus
[24] = Cardiotoxicity in Langendorff perfused rabbit heart assessed as change in PR interval at 10 uM measured over 20 mins by electrocardiography (reference value: 0%); format: toxicity, tissue-based, Oryctolagus cuniculus
[25] = Cardiotoxicity in Langendorff perfused rabbit heart assessed as change in PR interval at 10 uM measured over 30 mins by electrocardiography (reference value: 0%); format: toxicity, tissue-based, Oryctolagus cuniculus; conditions: 0.5 h
[26] = Cardiotoxicity in Langendorff perfused rabbit heart assessed as change in heart rate at 10 uM measured over 10 mins by electrocardiography (reference value: 0%); format: toxicity, tissue-based, Oryctolagus cuniculus
[27] = Drug concentration in Sprague-Dawley rat liver at 15 mg/kg, po after 24 hrs; format: ADME, organism-based; conditions: read-out: Drug uptake
[28] = Cardiotoxicity in Langendorff perfused rabbit heart assessed as change in QRS interval at 10 uM measured over 20 mins by electrocardiography (reference value: 0%); format: toxicity, tissue-based, Oryctolagus cuniculus
[29] = Drug concentration in Sprague-Dawley rat liver at 5 mg/kg, iv after 24 hrs; format: ADME, organism-based; conditions: read-out: Drug uptake
[30] = Cardiotoxicity in Langendorff perfused rabbit heart assessed as change in QT interval at 10 uM measured over 10 mins by electrocardiography (reference value: 0%); format: toxicity, tissue-based, Oryctolagus cuniculus
[31] = Cardiotoxicity in Langendorff perfused rabbit heart assessed as change in coronary flow at 10 uM measured over 20 mins by electrocardiography (reference value: 0%); format: toxicity, tissue-based, Oryctolagus cuniculus
[32] = Cardiotoxicity in Langendorff perfused rabbit heart assessed as change in heart rate at 10 uM measured over 20 mins by electrocardiography (reference value: 0%); format: toxicity, tissue-based, Oryctolagus cuniculus
[33] = Cardiotoxicity in Langendorff perfused rabbit heart assessed as change in coronary flow at 10 uM measured over 30 mins by electrocardiography (reference value: 0%); format: toxicity, tissue-based, Oryctolagus cuniculus; conditions: 0.5 h
[34] = Cardiotoxicity in Langendorff perfused rabbit heart assessed as change in sinus node recovery time at 10 uM measured over 30 mins by electrocardiography (reference value: 0%); format: toxicity, tissue-based, Oryctolagus cuniculus; conditions: 0.5 h

- clearance [1]: 38 mL/min/kg
- bioavailability [2]: 12%
SMILES: C=C[C@@H]1C[C@]1(NC(=O)[C@@H]1C[C@@H](Oc2ncc(OC)c3ccc(Cl)cc23)CN1C(=O)[C@@H](NC(=O)OC(C)(C)C)C(C)(C)C)C(=O)NS(=O)(=O)C1CC1

- concentration at 6 h [3]: 108 µM
- concentration at 6 h [4]: 95 µM
- AUC at 6 h [5]: 27 µM·h
- half-life [6]: 0.417 h
- AUC at 6 h [7]: 90 µM·h
- clearance [8]: 1.2 mL/min/kg
SMILES: C=C[C@@H]1C[C@]1(NC(=O)[C@@H]1C[C@]2(OC)CN1C(=O)[C@H](C(C)(C)C)NC(=O)OCCCCCCc1cc3cc2ccc3cc1OC)C(=O)NS(=O)(=O)C1CC1

- half-life [6]: 0.967 h
SMILES: C=C[C@@H]1C[C@]1(NC(=O)[C@@H]1C[C@]2(OC)CN1C(=O)[C@H](C(C)(C)C)NC(=O)OCC(C)(C)CCCCc1cc3cc2ccc3cc1OC)C(=O)NS(=O)(=O)C1CC1

- half-life [9]: 8 h
- clearance [10]: 3.5 mL/min/kg
- half-life [11]: 20 h
- bioavailability [12]: 18%
- AUC at 24 h [13]: 18 µM·h
- half-life [6]: 0.717 h
- AUC at 24 h [14]: 33 µM·h
SMILES: COc1cc2ccc3cc2cc1OCCCN(C1CC1)CCOC(=O)N[C@@H](C(C)(C)C)C(=O)N1C[C@@]3(OC)C[C@H]1C(=O)N[C@]1(C(=O)NS(=O)(=O)C2CC2)C[C@H]1C1CC1

- half-life [9]: 3.9 h
- clearance [10]: 3.5 mL/min/kg
- half-life [11]: 9.6 h
- bioavailability [12]: 100%
- AUC at 24 h [13]: 87 µM·h
- half-life [6]: 1.27 h
- concentration at 24 h [27]: 85 µM
- concentration at 24 h [29]: 100 µM
- AUC at 24 h [14]: 29 µM·h
SMILES: COc1cc2ccc3cc2cc1CCCC(C)(C)CCOC(=O)N[C@@H](C(C)(C)C)C(=O)N1C[C@@]3(OC)C[C@H]1C(=O)N[C@]1(C(=O)NS(=O)(=O)C2CC2)C[C@H]1C1CC1
- Activity [15]: 0%
- Activity [16]: 3%
- Activity [17]: -16%
- Activity [18]: 31%
- Activity [19]: 4%
- Activity [20]: 16%
- Activity [21]: 0%
- Activity [22]: 17%
- Activity [23]: 43%
- Activity [24]: 0%
- Activity [25]: 0%
- Activity [26]: 5%
- Activity [28]: 31%
- Activity [30]: -4%
- Activity [31]: 14%
- Activity [32]: -5%
- Activity [33]: -10%

- half-life [9]: 5.3 h
- clearance [10]: 2 mL/min/kg
- half-life [11]: 9.5 h
- bioavailability [12]: 34%
- AUC at 24 h [13]: 59 µM·h
- half-life [6]: 1.65 h
- AUC at 24 h [14]: 57 µM·h
SMILES: COc1cc2ccc3cc2cc1CCCCCCOC(=O)N[C@@H](C(C)(C)C)C(=O)N1C[C@@]3(OC)C[C@H]1C(=O)N[C@]1(C(=O)NS(=O)(=O)C2CC2)C[C@H]1C1CC1
- Activity [15]: 7%
- Activity [16]: 4%
- Activity [17]: -13%
- Activity [18]: 43%
- Activity [19]: 2%
- Activity [20]: 6%
- Activity [21]: 10%
- Activity [22]: 10%
- Activity [23]: 18%
- Activity [24]: 9%
- Activity [25]: 18%
- Activity [26]: -2%
- Activity [28]: 32%
- Activity [30]: 7%
- Activity [34]: 19%
- Activity [31]: 21%
- Activity [32]: -5%
- Activity [33]: 19%

- half-life [6]: > 2 h
SMILES: COC(=O)N1CCCOc2cc3cc(ccc3cc2OC)[C@]2(OC)C[C@@H](C(=O)N[C@]3(C(=O)NS(=O)(=O)C4CC4)C[C@H]3C3CC3)N(C2)C(=O)[C@H](C(C)(C)C)NC(=O)OCC1

- half-life [6]: 0.367 h
SMILES: C=C[C@@H]1C[C@]1(NC(=O)[C@@H]1C[C@]2(OC)CN1C(=O)[C@H](C(C)(C)C)NC(=O)OCCCCCOc1ccc3ccc2cc3c1)C(=O)NS(=O)(=O)C1CC1

- half-life [6]: 0.35 h
SMILES: C=C[C@@H]1C[C@]1(NC(=O)[C@@H]1C[C@@](OC)(c2ccc3cc(OC)ccc3c2)CN1C(=O)[C@@H](NC(=O)OC(C)(C)C)C(C)(C)C)C(=O)NS(=O)(=O)C1CC1

- half-life [6]: 1.38 h
SMILES: COc1cc2ccc3cc2cc1CCCCC(C)(C)COC(=O)N[C@@H](C(C)(C)C)C(=O)N1C[C@@]3(OC)C[C@H]1C(=O)N[C@]1(C(=O)NS(=O)(=O)C2CC2)C[C@H]1C1CC1

- half-life [6]: 0.6 h
SMILES: C=Cc1cc2cc([C@]3(OC)C[C@@H](C(=O)N[C@]4(C(=O)NS(=O)(=O)C5CC5)C[C@H]4C=C)N(C(=O)[C@@H](NC(=O)OC(C)(C)C)C(C)(C)C)C3)ccc2cc1OC

- half-life [6]: 0.55 h
SMILES: C=C[C@@H]1C[C@]1(NC(=O)[C@@H]1C[C@]2(OC)CN1C(=O)[C@H](C(C)(C)C)NC(=O)OCCCCCCCCc1cc3cc2ccc3cc1OC)C(=O)NS(=O)(=O)C1CC1

- half-life [9]: 4.2 h
- clearance [10]: 19 mL/min/kg
- half-life [11]: 4.6 h
- bioavailability [12]: 16%
- AUC at 24 h [13]: 3.6 µM·h
- half-life [6]: 0.65 h
- concentration at 24 h [27]: 31 µM
- concentration at 24 h [29]: 45 µM
- AUC at 24 h [14]: 7.2 µM·h
SMILES: CO[C@@]12C[C@@H](C(=O)N[C@]3(C(=O)NS(=O)(=O)C4CC4)C[C@H]3C3CC3)N(C1)C(=O)[C@H](C(C)(C)C)NC(=O)OCCCCCOc1ccc3ccc2cc3c1

— ChEMBL document CHEMBL4177703, “The discovery and optimization of naphthalene-linked P2-P4 Macrocycles as inhibitors of HCV NS3 protease” (Bioorg Med Chem Lett, 2018)
